Assay results as given in US20120070392A1, “COMPOSITION FOR INHIBITING ERYTHEMA CAUSED BY ULTRAVIOLET RADIATION CONTAINING A DIPEPTIDE AS ACTIVE INGREDIENT” (priority 2009, published 2012).
Read-outs that look alike come from different tables or passages of the source.

Test system: PGE2 production
Experiment: Inhibition of UVB-induced PGE2 production in cultured human keratinocytes (PGE2 assay kit, calibrated with MTT absorbance)
Format: cell-based
Experimental: Human keratinocytes were seeded at a density of 1×10^5 cells/well to 6-well plates containing 2 mL of KGM(keratinocyte growth medium, Clonetics, San Diego, Calif., USA) per well and cultured overnight. Then, the medium was replaced with KBM(keratinocyte basal medium) supplemented with 0.1% BSA(bovine serum albumin) and the cells were cultured for an additional 24 hours. Subsequently, the cells were pre-treated for an additional 24 hours with 2 mL of the same medium containing 10 μg/ml of each of the dipeptides listed in Table 1. […] The pre-treated medium was transferred to new 24 well plates and 1 mL of DPBS(Dulbecco's phosphate buffered saline) was added to the cells in each well. During UV irradiation, the transferred medium was stored in a cell incubator. […] At this time, the control was covered with aluminum foil. After the removal of DPBS, the transferred medium was returned to each well. The cells were further cultured for 24 hours, after which 1 mL of the medium was transferred to microcentrifuge tubes. […] The supernatants were then removed and the formazan crystals were solubilized in 1 ml of DMSO(dimethylsulfoxide). One hundred μL of the solution was transferred to each well of 96-well plates and an optical density was determined at 540 nm using an ELISA(enzyme-linked immunosorbent assay) reader. […] The concentration of PGE2 was determined using a PGE2 Assay Kit(KGE004, R&D Systems, Inc., Minneapolis, Minn., USA) according to the manufacturer's instruction. […] After removal of the reaction, the wells were washed five times with 400 μL of wash buffer. To each well was added 200 μL of a substrate solution, followed by incubation for 20 30 min. The reaction was terminated with 50 μL of a stop solution per well before determining absorbance at 450 nm on an ELISA reader. The PGE2 concentration of each sample was calculated from the standard graph and calibrated with the absorbance obtained in the MTT assay to determine their inhibitory activity against PGE2 production.

[1] = 10 μg/ml dipeptide, 24 h pre-treatment, human keratinocytes, UVB 100 mJ/cm^2, medium assayed 24 h after irradiation, […], 10% or more regarded as effective
[2] = 10 μg/ml dipeptide, 24 h pre-treatment, human keratinocytes, UVB 100 mJ/cm^2, medium assayed 24 h after irradiation, 0% or lower expressed as zero, 10% or more regarded as effective

Row | Compound | % Inhibition against PGE2 Production [1] [%] | other results
1 | threonine-lysine [TK] | 39.0 | 
2 | serine-glutamic acid | 44.0 | 
3 | histidine-phenylalanine [HF] |  | % Inhibition against PGE2 Production [2]: 43.2%
4 | threonine-glutamic acid [TE] | 82.5 | 
5 | glutamic acid-aspartic acid [ED] | 85.1 | 
6 | tyrosine-threonine [YT] |  | % Inhibition against PGE2 Production: 91.5%
7 | NCC(=O)O.N[C@@H](CC(=O)O)C(=O)O [GD, glycine-aspartic acid] |  | % Inhibition against PGE2 Production: 23.8%
8 | glutamic acid-serine [ES] | 48.8 | 
9 | proline-tryptophan [PW] |  | % Inhibition against PGE2 Production: 85.5%
10 | serine-cysteine [SC] | 77.7 | 
11 | methionine-tryptophan [MW] |  | % Inhibition against PGE2 Production: 76.4%
12 | serine-isoleucine [SI] | 50.3 | 
13 | tyrosine-isoleucine [YI] |  | % Inhibition against PGE2 Production: 44.3%
14 | glutamic acid-phenylalanine [EF] | 13.3 | 
15 | phenylalanine-methionine [FM] |  | % Inhibition against PGE2 Production [2]: 67.5%
16 | glutamic acid-lysine [EK] | 76.5 | 
17 | proline-alanine [PA] |  | % Inhibition against PGE2 Production [2]: 76.8%
18 | alanine-phenylalanine [AF] | 84.2 | 
19 | tryptophan-alanine [WA] |  | % Inhibition against PGE2 Production [2]: 88.5%
20 | asparagine-glutamine [NQ] | 70.1 | 
21 | glutamine-phenylalanine [QF] | 19.0 | 
22 | lysine-aspartic acid [KD] | 90.3 | 
23 | tyrosine-phenylalanine [YF] |  | % Inhibition against PGE2 Production: 12.7%
